Data as given in PubChem BioAssay (NCI).
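Each compound was tested at five concentrations against cells in 96-well plates for 48 hours. TGI marks complete inhibition of growth.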

What was measured:
Assay in all cases: NCI-60 cell line screen, 48 h
[1] = test system: SF-539 CNS
[2] = test system: UO-31 renal
[3] = test system: RXF 393 renal
[4] = test system: NCI-H522 lung
[5] = test system: SF-295 CNS
[6] = test system: SK-MEL-28 melanoma
[7] = test system: LXFL 529 NSCLC
[8] = test system: KM20L2 colon
[9] = test system: HT29 colon
[10] = test system: K-562 leukemia
[11] = test system: SNB-75 CNS
[12] = test system: A549 NSCLC
[13] = test system: HCT-15 colon
[14] = test system: SN12C renal
[15] = test system: U251 CNS
[16] = test system: HOP-92 NSCLC
[17] = test system: SW-620 colon
[18] = test system: SK-MEL-2 melanoma
[19] = test system: SK-MEL-5 melanoma
[20] = test system: DLD-1 colon
[21] = test system: MALME-3M melanoma
[22] = test system: UACC-62 melanoma
[23] = test system: SNB-19 CNS
[24] = test system: 786-0 renal
[25] = test system: SF-268 CNS
[26] = test system: NCI-H23 lung
[27] = test system: TK-10 renal
[28] = test system: UACC-257 melanoma
[29] = test system: LOX IMVI melanoma
[30] = test system: HCT-116 colon
[31] = test system: OVCAR-3 ovarian
[32] = test system: SK-OV-3 ovarian
[33] = test system: KM12 colon
[34] = test system: NCI-H460 lung
[35] = test system: IGROV1 ovarian
[36] = test system: M14 melanoma
[37] = test system: ACHN renal
[38] = test system: OVCAR-8 ovarian
[39] = test system: EKVX NSCLC
[40] = test system: HCC-2998 colon
[41] = test system: HOP-18 NSCLC
[42] = test system: CCRF-CEM leukemia
[43] = test system: RXF-631 renal
[44] = test system: MOLT-4 leukemia
[45] = test system: A498 renal
[46] = test system: SNB-78 CNS
[47] = test system: RPMI-8226 leukemia
[48] = test system: OVCAR-5 ovarian
[49] = test system: DMS 114 small cell lung
[50] = test system: SR leukemia
[51] = test system: XF 498 CNS
[52] = test system: HL-60(TB) leukemia
[53] = test system: DMS 273 small cell lung
[54] = test system: M19-MEL melanoma
[55] = test system: OVCAR-4 ovarian
[56] = test system: COLO 205 colon
[57] = test system: HOP-62 NSCLC
[58] = test system: CAKI-1 renal
[59] = test system: NCI-H226 lung

Compound: COCOCCC#CCO
- TGI [1]: > 100 µM
- TGI [2]: > 100 µM
- TGI [3]: > 100 µM
- TGI [4]: > 100 µM
- TGI [5]: > 100 µM
- TGI [6]: > 100 µM
- TGI [7]: > 100 µM
- TGI [8]: > 100 µM
- TGI [9]: > 100 µM
- TGI [10]: > 100 µM
- TGI [11]: > 100 µM
- TGI [12]: > 100 µM
- TGI [13]: > 100 µM
- TGI [14]: > 100 µM
- TGI [15]: > 100 µM
- TGI [16]: > 100 µM
- TGI [17]: > 100 µM
- TGI [18]: > 100 µM
- TGI [19]: > 100 µM
- TGI [20]: > 100 µM
- TGI [21]: > 100 µM
- TGI [22]: > 100 µM
- TGI [23]: > 100 µM
- TGI [24]: > 100 µM
- TGI [25]: > 100 µM
- TGI [26]: > 100 µM
- TGI [27]: > 100 µM
- TGI [28]: > 100 µM
- TGI [29]: > 100 µM
- TGI [30]: > 100 µM
- TGI [31]: > 100 µM
- TGI [32]: > 100 µM
- TGI [33]: > 100 µM
- TGI [34]: > 100 µM
- TGI [35]: > 100 µM
- TGI [36]: > 100 µM
- TGI [37]: > 100 µM
- TGI [38]: > 100 µM
- TGI [39]: > 100 µM
- TGI [40]: > 100 µM
- TGI [41]: > 100 µM
- TGI [42]: > 100 µM
- TGI [44]: > 100 µM
- TGI [45]: > 100 µM
- TGI [46]: > 100 µM
- TGI [47]: > 100 µM
- TGI [48]: > 100 µM
- TGI [49]: > 100 µM
- TGI [50]: > 100 µM
- TGI [51]: > 100 µM
- TGI [52]: > 100 µM

Compound: O/N=C1\CCCCC1C(NO)c1ccccc1 (stereo not drawn)
- TGI [53]: > 100 µM
- TGI [1]: > 100 µM
- TGI [2]: > 100 µM
- TGI [3]: > 100 µM
- TGI [4]: > 100 µM
- TGI [5]: > 100 µM
- TGI [6]: > 100 µM
- TGI [7]: > 100 µM
- TGI [8]: > 100 µM
- TGI [9]: > 100 µM
- TGI [10]: > 100 µM
- TGI [11]: > 100 µM
- TGI [12]: > 100 µM
- TGI [13]: > 100 µM
- TGI [14]: > 100 µM
- TGI [15]: > 100 µM
- TGI [16]: > 100 µM
- TGI [17]: > 100 µM
- TGI [18]: > 100 µM
- TGI [54]: > 100 µM
- TGI [55]: > 100 µM
- TGI [20]: > 100 µM
- TGI [21]: > 100 µM
- TGI [22]: > 100 µM
- TGI [23]: > 100 µM
- TGI [24]: > 100 µM
- TGI [25]: > 100 µM
- TGI [26]: > 100 µM
- TGI [27]: > 100 µM
- TGI [28]: > 100 µM
- TGI [29]: > 100 µM
- TGI [30]: > 100 µM
- TGI [31]: > 100 µM
- TGI [32]: > 100 µM
- TGI [33]: > 100 µM
- TGI [34]: > 100 µM
- TGI [35]: > 100 µM
- TGI [36]: > 100 µM
- TGI [37]: > 100 µM
- TGI [38]: > 100 µM
- TGI [39]: > 100 µM
- TGI [40]: > 100 µM
- TGI [41]: > 100 µM
- TGI [56]: > 100 µM
- TGI [42]: > 100 µM
- TGI [43]: > 100 µM
- TGI [57]: > 100 µM
- TGI [44]: > 100 µM
- TGI [45]: > 100 µM
- TGI [46]: > 100 µM
- TGI [47]: > 100 µM
- TGI [48]: > 100 µM
- TGI [49]: > 100 µM
- TGI [52]: > 100 µM

Compound: CCOC(=O)C(Br)=C1OC(=O)c2ccccc2-c2ccccc21 (mixture of isomers)
- TGI [53]: 29 µM
- TGI [1]: 46.8 µM
- TGI [2]: > 100 µM
- TGI [4]: 32 µM
- TGI [5]: 54.4 µM
- TGI [6]: 37.8 µM
- TGI [7]: 26.5 µM
- TGI [9]: 29.5 µM
- TGI [10]: 22.7 µM
- TGI [11]: 51 µM
- TGI [12]: > 100 µM
- TGI [13]: 40 µM
- TGI [14]: 56.4 µM
- TGI [15]: 59.4 µM
- TGI [16]: 29.5 µM
- TGI [17]: 35.1 µM
- TGI [18]: 37.4 µM
- TGI [54]: 31 µM
- TGI [19]: 35.8 µM
- TGI [20]: 36.4 µM
- TGI [58]: 32.7 µM
- TGI [21]: 37.6 µM
- TGI [22]: 29.5 µM
- TGI [24]: 32.7 µM
- TGI [25]: 88.3 µM
- TGI [26]: 48 µM
- TGI [27]: 49 µM
- TGI [28]: 48 µM
- TGI [29]: 35.9 µM
- TGI [59]: 60.4 µM
- TGI [30]: 34 µM
- TGI [31]: 35.9 µM
- TGI [32]: > 100 µM
- TGI [33]: 34.9 µM
- TGI [35]: 34.4 µM
- TGI [36]: 37.1 µM
- TGI [37]: 29 µM
- TGI [38]: 75.8 µM
- TGI [39]: > 100 µM
- TGI [40]: 38 µM
- TGI [41]: 51.4 µM
- TGI [56]: 32.9 µM
- TGI [42]: 40.2 µM
- TGI [43]: 49.9 µM
- TGI [57]: 37.4 µM
- TGI [44]: 47.6 µM
- TGI [46]: 52.3 µM
- TGI [47]: 38.1 µM
- TGI [48]: 42.6 µM
- TGI [49]: 32.2 µM
- TGI [50]: 47.2 µM
- TGI [51]: 38.5 µM
- TGI [52]: 35 µM

Compound: Oc1oc(C(=C2N=c3ccccc3=N2)c2ccc(Cl)cc2)c(O)c1-c1ccc(Cl)cc1
- TGI [53]: 19.1 µM
- TGI [1]: 9.91 µM
- TGI [2]: 8.08 µM
- TGI [3]: 6.8 µM
- TGI [4]: 6.18 µM
- TGI [5]: 16.8 µM
- TGI [6]: 33.7 µM
- TGI [7]: 12.2 µM
- TGI [8]: 10.2 µM
- TGI [9]: 10.7 µM
- TGI [10]: > 100 µM
- TGI [11]: 13 µM
- TGI [12]: > 100 µM
- TGI [14]: > 100 µM
- TGI [15]: 22.9 µM
- TGI [16]: 4.47 µM
- TGI [17]: 68.3 µM
- TGI [55]: > 100 µM
- TGI [20]: > 100 µM
- TGI [58]: 7.14 µM
- TGI [21]: 7.72 µM
- TGI [22]: 15.2 µM
- TGI [23]: > 100 µM
- TGI [24]: > 100 µM
- TGI [25]: > 100 µM
- TGI [26]: 4.34 µM
- TGI [27]: 11.5 µM
- TGI [28]: 6.45 µM
- TGI [29]: 10.1 µM
- TGI [59]: 6.81 µM
- TGI [30]: 9.14 µM
- TGI [31]: > 100 µM
- TGI [32]: 11.3 µM
- TGI [33]: 15.9 µM
- TGI [34]: > 100 µM
- TGI [35]: > 100 µM
- TGI [36]: 18 µM
- TGI [37]: 14.7 µM
- TGI [38]: > 100 µM
- TGI [39]: 7.41 µM
- TGI [40]: 20.8 µM
- TGI [41]: > 100 µM
- TGI [56]: 3.01 µM
- TGI [42]: > 100 µM
- TGI [43]: > 100 µM
- TGI [57]: 4.51 µM
- TGI [44]: 7.53 µM
- TGI [45]: 9.06 µM
- TGI [46]: > 100 µM
- TGI [47]: 8.12 µM
- TGI [48]: 6.89 µM
- TGI [49]: 5.52 µM
- TGI [50]: 12.6 µM
- TGI [52]: 5.02 µM
